Article PMC8622415, “Inhibitory Effect of Chlorogenic Acid Analogues Comprising Pyridine and Pyrimidine on α-MSH-Stimulated Melanogenesis and Stability of Acyl Analogues in Methanol” (Pharmaceuticals, 2021)
Several values for one entry are separate records, joined by “and”; a condition that tells them apart may be missing. Identical values can stand only once. Like-named read-outs stand apart in the source and are kept apart here.

Key:
B16 melanoma cells = assay: Inhibition of α-MSH-stimulated melanin formation (melanin measurement); type: cell-based, Mouse; details: α-MSH 10.0 nM, melanin released into medium, absorbance 405 nm, read-out: IC50, inhibition of α-MSH-induced melanogenesis
Experimental: Mouse melanoma B16 cells were cultured in a 96-well culture plate (2.5 × 10^3 cells/well). Culture media were washed from each culture plates after 24 h and treated with freshly prepared 10% FBS-DMEM medium, various concentrations (such as 0.5, 1.0, 3.0, 10.0, 30.0, and 100.0 µM) of compound samples, and stimulants (α-MSH, 10.0 nM). Then, it was incubated at 37 °C for 72 h, and the amount of melanin released into the medium was determined by measuring the absorbance at wavelength of 405 nm using spectrophotometer (Molecular Device, San Jose, CA, USA). The absorbance of stimulated cells using α-MSH was used as a control, and the inhibition level was calculated by subtracting the absorbance values of cells that were not stimulated. The absorbance values were compared with standard curves obtained with synthetic melanin. The synthetic melanin (Sigma-Aldrich, St. Louis, MO, USA) was dissolved in 0.85 M KOH-10% DMSO solution; then, it was serially diluted with 10% FBS-DMEM medium and then aliquoted into a 96-well culture plate. Then, the absorbance of melanin was measured by a spectrophotometer at 405 nm, and a standard curve was prepared. Using this value, the amount of melanin released out of the cell was directly calculated. Results obtained by three or more sets of experiments were expressed as mean ± standard error.

[1] = Stability of CGA acyl analogues in methanol solution (HPLC); type: physicochemical; details: 25 °C
Experimental: The stability of the synthesized acyl analogues was measured in methanol, since the acetyl analogue of CGA was highly unstable in methanol solution. First, 10 mg of the sample was dissolved in 2 mL of methanol and stored at 25 °C. Then, purity was analyzed using HPLC (Shimadzu LC solution, Kyoto, Japan) for 28 days. The samples in methanol solution were diluted 10 times in the HPLC mobile phase ((A) 0.5% formic acid in H2O (B) 0.5% formic acid in acetonitrile (ACN), A/B = 20/80) and injected in HPLC column (inertsil ODS-3V C18 column (250 × 4.00 mm i.d; 5 μm)). Finally, the amount of acyl compound remaining in the solution was measured by calculating the area under the curve of the HPLC chromatogram, and the results were expressed in percentage units.

COc1ccc(-c2ccnc(NCc3ccccc3C(F)(F)F)c2)cc1OC [Compound 6g, 4-(3,4-Dimethoxyphenyl)-N-(2-(trifluoromethyl)benzyl)pyridin-2-amine]
IC50 (B16 melanoma cells; Mus musculus, B16, 72 h): 7.5 ± 0.7 µM

OC[C@H]1O[C@@H](Oc2ccc(O)cc2)[C@H](O)[C@@H](O)[C@@H]1O [Arbutin, reference compound]
IC50 (B16 melanoma cells; Mus musculus, B16, 72 h): 380 ± 9.5 µM

COc1ccc(-c2ccnc(NCc3ccccc3)n2)cc1OC [Compound 10a, N-Benzyl-4-(3,4-dimethoxyphenyl)pyrimidin-2-amine]
IC50 (B16 melanoma cells; Mus musculus, B16, 72 h): > 100 µM

COc1ccc(-c2ccnc(NCc3cccc(C(F)(F)F)c3)n2)cc1OC [Compound 10f, 4-(3,4-Dimethoxyphenyl)-N-(3-(trifluoromethyl)benzyl)pyrimidin-2-amine]
IC50 (B16 melanoma cells; Mus musculus, B16, 72 h): 20 ± 1 µM

COc1ccc(-c2ccnc(NCc3cccc(Cl)c3)n2)cc1OC [Compound 10c, N-(3-Chlorobenzyl)-4-(3,4-dimethoxyphenyl)pyrimidin-2-amine]
IC50 (B16 melanoma cells; Mus musculus, B16, 72 h): 32 ± 2 µM

COc1ccc(/C=C/C(=O)OC2CCCCC2)cc1OC [Compound 17, (E)-Cyclohexyl 3-(3,4-dimethoxyphenyl)acrylate]
IC50 (B16 melanoma cells; Mus musculus, B16, 72 h): > 100 µM

CC(C)COc1ccc(/C=C/C(=O)OC2CCCCC2)cc1OCC(C)C [Compound 15, (E)-Cyclohexyl 3-(3,4-diisobutoxyphenyl)acrylate]
IC50 (B16 melanoma cells; Mus musculus, B16, 72 h): > 100 µM

CC(C)(C)C(=O)Oc1ccc(/C=C/C(=O)OC2CCCCC2)cc1OC(=O)C(C)(C)C [Compound 13c, (E)-4-(3-(Cyclohexyloxy)-3-oxoprop-1-en-1-yl)-1,2-phenylene bis(2,2-dimethylpropanoate)]
IC50 (B16 melanoma cells; Mus musculus, B16, 72 h): 1.9 ± 0.1 µM
Amount remaining in methanol (HPLC area) ([1]; day 0): 99.5492%
Amount remaining in methanol (HPLC area) ([1]; day 1): 99.3034%
Amount remaining in methanol (HPLC area) ([1]; day 2): 99.1518%
Amount remaining in methanol (HPLC area) ([1]; day 3): 99.0038%
Amount remaining in methanol (HPLC area) ([1]; day 4): 98.8061%
Amount remaining in methanol (HPLC area) ([1]; day 5): 98.5395%
Amount remaining in methanol (HPLC area) ([1]; day 7): 97.9332%
Amount remaining in methanol (HPLC area) ([1]; day 9): 97.4173%
Amount remaining in methanol (HPLC area) ([1]; day 11): 96.8033%
Amount remaining in methanol (HPLC area) ([1]; day 21): 95.0243%
Amount remaining in methanol (HPLC area) ([1]; day 28): 94% and 94.0833%

CCCCCC(=O)Oc1ccc(/C=C/C(=O)OC2CCCCC2)cc1OC(=O)CCCCC [Compound 13b, (E)-4-(3-(Cyclohexyloxy)-3-oxoprop-1-en-1-yl)-1,2-phenylene dihexanoate]
IC50 (B16 melanoma cells; Mus musculus, B16, 72 h): 1.3 ± 0.4 µM
Amount remaining in methanol (HPLC area) ([1]; day 0): 99.8006%
Amount remaining in methanol (HPLC area) ([1]; day 1): 93.7356%
Amount remaining in methanol (HPLC area) ([1]; day 2): 89.9637%
Amount remaining in methanol (HPLC area) ([1]; day 3): 86.8066%
Amount remaining in methanol (HPLC area) ([1]; day 4): 83.9188%
Amount remaining in methanol (HPLC area) ([1]; day 5): 82.1086%
Amount remaining in methanol (HPLC area) ([1]; day 7): 77.5962%
Amount remaining in methanol (HPLC area) ([1]; day 9): 74.0389%
Amount remaining in methanol (HPLC area) ([1]; day 11): 70.6843%
Amount remaining in methanol (HPLC area) ([1]; day 21): 58.4127%
Amount remaining in methanol (HPLC area) ([1]; day 28): 52% and 52.5500%

COc1ccc(-c2ccnc(NCc3cccc(Cl)c3)c2)cc1OC [Compound 6c, N-(3-Chlorobenzyl)-4-(3,4-dimethoxyphenyl)pyridin-2-amine]
IC50 (B16 melanoma cells; Mus musculus, B16, 72 h): 5 ± 1.4 µM

COc1ccc(-c2ccnc(NCc3ccc(Cl)cc3)c2)cc1OC [Compound 6b, N-(4-Chlorobenzyl)-4-(3,4-dimethoxyphenyl)pyridin-2-amine]
IC50 (B16 melanoma cells; Mus musculus, B16, 72 h): 4.5 ± 0.7 µM

CC(=O)Oc1ccc(/C=C/C(=O)OC2CCCCC2)cc1OC(C)=O [Compound 18]
Amount remaining in methanol (HPLC area) ([1]; day 0): 99.5029%
Amount remaining in methanol (HPLC area) ([1]; day 1): 71.1918%
Amount remaining in methanol (HPLC area) ([1]; day 2): 55.5162%
Amount remaining in methanol (HPLC area) ([1]; day 3): 43.5699%
Amount remaining in methanol (HPLC area) ([1]; day 4): 33.7154%
Amount remaining in methanol (HPLC area) ([1]; day 5): 27.3752%
Amount remaining in methanol (HPLC area) ([1]; day 7): 16.5047%
Amount remaining in methanol (HPLC area) ([1]; day 9): 10.5572%
Amount remaining in methanol (HPLC area) ([1]; day 11): 6.9200%
Amount remaining in methanol (HPLC area) ([1]; day 21): 1.4408%
Amount decomposed in methanol solution ([1]; within 10 days, HPLC): more than 90%

O=C(/C=C/c1ccc(OC(=O)C2CCCCC2)c(OC(=O)C2CCCCC2)c1)OC1CCCCC1 [Compound 13d, (E)-4-(3-(Cyclohexyloxy)-3-oxoprop-1-en-1-yl)-1,2-phenylene dicyclohexanecarboxylate]
IC50 (B16 melanoma cells; Mus musculus, B16, 72 h): 2.3 ± 0.2 µM
Amount remaining in methanol (HPLC area) ([1]; day 0): 98.9750%
Amount remaining in methanol (HPLC area) ([1]; day 1): 96.9973%
Amount remaining in methanol (HPLC area) ([1]; day 2): 95.8267%
Amount remaining in methanol (HPLC area) ([1]; day 3): 94.6557%
Amount remaining in methanol (HPLC area) ([1]; day 4): 93.5713%
Amount remaining in methanol (HPLC area) ([1]; day 5): 93.0573%
Amount remaining in methanol (HPLC area) ([1]; day 7): 91.6229%
Amount remaining in methanol (HPLC area) ([1]; day 9): 90.6724%
Amount remaining in methanol (HPLC area) ([1]; day 11): 89.8768%
Amount remaining in methanol (HPLC area) ([1]; day 21): 87.5571%

COc1ccc(-c2ccnc(NCc3ccc(C(F)(F)F)cc3)n2)cc1OC [Compound 10e, 4-(3,4-Dimethoxyphenyl)-N-(4-(trifluoromethyl)benzyl)pyrimidin-2-amine]
IC50 (B16 melanoma cells; Mus musculus, B16, 72 h): > 100 µM

COc1ccc(-c2ccnc(NCc3ccccc3Cl)n2)cc1OC [Compound 10d, N-(2-Chlorobenzyl)-4-(3,4-dimethoxyphenyl)pyrimidin-2-amine]
IC50 (B16 melanoma cells; Mus musculus, B16, 72 h): 40 ± 8 µM

COc1ccc(-c2ccnc(NCc3ccccc3)c2)cc1OC [Compound 6a, N-Benzyl-4-(3,4-dimethoxyphenyl)pyridin-2-amine]
IC50 (B16 melanoma cells; Mus musculus, B16, 72 h): 17 ± 4 µM

COc1ccc(-c2ccnc(NCc3cccc(C(F)(F)F)c3)c2)cc1OC [Compound 6f, 4-(3,4-Dimethoxyphenyl)-N-(3-(trifluoromethyl)benzyl)pyridin-2-amine]
IC50 (B16 melanoma cells; Mus musculus, B16, 72 h): 2.5 ± 0.7 µM

COc1ccc(-c2ccnc(NCc3ccccc3Cl)c2)cc1OC [Compound 6d, N-(2-Chlorobenzyl)-4-(3,4-dimethoxyphenyl)pyridin-2-amine]
IC50 (B16 melanoma cells; Mus musculus, B16, 72 h): 8.5 ± 0.7 µM
IC50 (B16 melanoma cells; 72 h): 8 ± 1 µM

COc1ccc(-c2ccnc(NCc3ccc(C(F)(F)F)cc3)c2)cc1OC [Compound 6e, 4-(3,4-Dimethoxyphenyl)-N-(4-(trifluoromethyl)benzyl)pyridin-2-amine]
IC50 (B16 melanoma cells; Mus musculus, B16, 72 h): 8.5 ± 0.7 µM

COc1ccc(-c2ccnc(NCc3ccc(Cl)cc3)n2)cc1OC [Compound 10b, N-(4-Chlorobenzyl)-4-(3,4-dimethoxyphenyl)pyrimidin-2-amine]
IC50 (B16 melanoma cells; Mus musculus, B16, 72 h): 54 ± 6 µM

O=c1cc(CO)occ1O [Kojic acid, reference compound]
IC50 (B16 melanoma cells; Mus musculus, B16, 72 h): 54 ± 1.5 µM

CCCC(=O)Oc1ccc(/C=C/C(=O)OC2CCCCC2)cc1OC(=O)CCC [Compound 13a, (E)-4-(3-(Cyclohexyloxy)-3-oxoprop-1-en-1-yl)-1,2-phenylene dibutyrate]
IC50 (B16 melanoma cells; Mus musculus, B16, 72 h): 1.1 ± 0.1 µM
IC50 (B16 melanoma cells; 72 h): 1 ± 0.1 µM
Amount remaining in methanol (HPLC area) ([1]; day 0): 99.3294%
Amount remaining in methanol (HPLC area) ([1]; day 1): 91.3520%
Amount remaining in methanol (HPLC area) ([1]; day 2): 85.3800%
Amount remaining in methanol (HPLC area) ([1]; day 3): 80.3685%
Amount remaining in methanol (HPLC area) ([1]; day 4): 75.4921%
Amount remaining in methanol (HPLC area) ([1]; day 5): 72.147%
Amount remaining in methanol (HPLC area) ([1]; day 7): 64.7751%
Amount remaining in methanol (HPLC area) ([1]; day 9): 59.4842%
Amount remaining in methanol (HPLC area) ([1]; day 11): 55.1819%
Amount remaining in methanol (HPLC area) ([1]; day 21): 43.3505%
Amount remaining in methanol (HPLC area) ([1]; day 28): 39% and 39.0229%
